Laboratory results reported in patent US20020177580A1, “Means and method for hormonal contraception” (priority 2001, published 2002).
“Also recorded” adds a separate entry of the source.

What was measured:
women = experiment: Clinical study with dydrogesterone as progestogen-only preparation (Example 5); format: in vivo, human; settings: 20 mg dydrogesterone once a day, uninterruptedly for 4 months
From the text: Women participating in the study described in these examples are all selected on the basis that they are users of ‘high’ dose monophasic ethinyl estradiol-containing combined oral contraceptives. The reasons for applying this selection criterion is that there is a dose-relationship between follicular development and ethinyl estradiol whether given alone or in combination with a progestogen, i.e. less follicular development in the presence of the higher dose. Participation of the females involved in the study starts at a moment of (almost) complete suppression of follicular development. This condition is not met if a female has her first day of bleeding in a natural cycle, after a tablet-free interval, or immediately after a low-dose combined oral contraceptive.
A clinical study with dydrogesterone as a progestogen-only preparation is conducted in 8 women who were selected on the basis of the criteria mentioned in Example 1. The 8 women receive a 20 mg dosage of dydrogesterone once a day, uninterruptedly during a period of 4 months.

ovulation = settings: humans; reported by Claassen et al., Acta Endocrinologica (1967); cited from earlier work
[1] = compared with commercially used synthetic progestogens; cited from earlier work
[2] = hormone replacement therapy with 17beta-estradiol dydrogesterone (Grisar et al., 1999); cited from earlier work

CC(=O)[C@H]1CC[C@H]2[C@@H]3C=CC4=CC(=O)CC[C@@]4(C)[C@@H]3CC[C@]12C [dydrogesterone, 9β,10α-pregna-4,6-diene-3,20-dione]
irregular bleeding (women): some unpredictable irregular bleeding | menses flow (women): reduction of the usual menses flow | ovulation inhibition (women): Ovulation is inhibited | inhibition of ovulation (ovulation): cannot be used to inhibit ovulation; also recorded: does not inhibit ovulation in humans | estrogenic, glucocorticoid, anabolic or androgenic properties [1]: does not exhibit estrogenic, glucocorticoid, anabolic or androgenic properties | adverse effects on blood pressure [2]: no adverse effects on blood pressure
